Measurements taken from US20020137154A1, “Methods for improving cell growth and alcohol production during fermentation” (priority 2000, published 2002).

Tested on: Klebsiella oxytoca P2
Experiment: Batch fermentation of Klebsiella oxytoca P2 in 1% CSL medium and xylose with acetaldehyde: ethanol production and cell growth
Format: cell-based
Conditions: for Ethanol Production Maximum / Ethanol Production Maximum % Control / Ethanol yield / Initial Growth (OD @ 24 h) % Control / Initial Growth (OD @ 24 h) OD / Maximum Cell Density % Control / Maximum Cell Density OD / Maximum Cell Density Time / Time to completion / Volumetric Productivity % Control (based on Avg) / Volumetric Productivity % Control (based on Max) / Volumetric Productivity Average / Volumetric Productivity Maximum: K. oxytoca P2, 1% CSL+xylose
Procedure: Two types of media were tested: 1% CSL and Luria broth (LB). Each contained 97 g of either xylose or glucose per liter. Luria Broth consists of, per liter: 10 g Difco® Tryptone, 5 g Difco® Yeast Extract and 5 g NaCl. The 1% CSL medium consists of Corn Steep Liquor (1% w/v) plus mineral salts (mineral salts per liter: 1 g of KH2PO4. 0.5 g of K2HPO4, 3.1 g of (NH4)2SO4, 0.4 g of MgCl2·6H2), and 20 mg FeCl3·6H2O).
Luria Broth was prepared by autoclaving a 2× nutrient stock containing, per liter: 20 g Difco® Tryptone, 10 g Difo® Yeast Extract, and 10 g NaCl. Sugars (xylose or glucose) were autoclaved separately. A 1% CSL medium was prepared as follows: Commercial Corn Steep Liquor (CSL; 50% dry weight/50% water) was diluted with tap water to make a 20X stock containing 100 g dry weight of Corn Steep Liquor/L and was adjusted to pH 7.2 with NaOH (50%). After sterilization by autoclaving, the 20X CSL stock was clarified by centrifugation at 5000×g for 10 minutes. Magnesium was added as a 100× stock solution (40 g/L MgCl2·6H2O). Iron was added as a 1000× stock solution made by dissolving 20 g FeCl3·6H2O in 175 mL of HCl and adjusting to 1 L with sterile water. Nitrogen, sulfur and phosphorus were added using a 20× stock solution containing the following (per liter): 20 g of KH2PO4, 10 g of K2HPO4 and 62 g of (NH4)2SO4. Stock solutions containing minerals were sterilized separately by autoclaving. Final media was prepared by adding 750 mL of water to 1 L bottle containing 100 g of xylose or glucose. This solution was autoclaved, and stock solutions were added to provide a 1× concentration, and the final volume adjusted to 1 L. This broth was further diluted by the addition of supplements (acetaldehyde stock or distilled water) during fermentation with a resulting sugar content of 97 g/L.
Inocula were grown in same media used for fermentation and were prepared as follows. Three colonies from a fresh plate were used to inoculate seed cultures: 250-mL flask containing 100 mL medium. These cultures were grown with agitation (120 rpm) for 12-16 hours at 35° C. to a final OD550nm of approximately 2.0-2.5. Cells were harvested by centrifugation at 5000×g for 5 minutes, and resuspended in fresh media to an OD550nm of 0.1. The resulting suspension was distributed into 500-mL beakers containing 345 ml each of fermentation medium. Acetaldehyde was added as indicated. Batch fermentations (35° C., 100 rpm) were maintained at pH 6.5 by the automatic addition of 2N KOH. Cell mass, ethanol, and base addition (2N KOH) were recorded during 96 hours of incubation.
Cell mass was estimated by measuring OD550nm using Baush & Lomb® Spectronic 70 spectrophotometer. […] Ethanol was measured by gas chromatography using a Varian® 3400 CX gas chromatograph with 1-propanol as an internal standard.
This example describes the effect of the addition of acetaldehyde to 1% CSL and xylose medium, which has been inoculated with ethanologenic, cells, i.e., Klebsiella oxytoca P2.
Maximum ethanol production is shown in grams/liter (g/L). The ethanol yield is shown in grams of ethanol/grams of added sugar. Maximum volumetric productivity is shown in grams of ethanol/(liter)(hour). The average productivity is calculated form the start of fermentation to the completion of fermentation in grams ethanol/(liter)(hour).
Acetaldehyde was added to the fermentation medium at five different concentrations and time points. Where only one acetaldehyde value is provided, this amount of acetaldehyde was added at the start of fermentation only (i.e., 0.25 g/L acetaldehyde or 0.5 g/L). Where two or three additions are indicated, the first volume was added at the start of fermentation and additional doses of the nutrient compound were added after 8 hours of fermentation or at 8-hour intervals.

[1] = 2 × 0.25 g/L (start, after 8 hours)
[2] = 3 × 0.25 g/L (start, then 8-hour intervals)
[3] = K. oxytoca P2, CSL and xylose, 0.5 g/L at the start

Compound: CC=O [Acetaldehyde, acetaldehyde]
- Ethanol Production Maximum (0.25 g/L at start): 25.43 g/L
- Ethanol Production Maximum % Control (0.25 g/L at start): 107.35%
- Ethanol yield (0.25 g/L at start): 0.262 grams of ethanol/grams of added sugar
- Initial Growth (OD @ 24 h) % Control (0.25 g/L at start): 93.90%
- Initial Growth (OD @ 24 h) OD (0.25 g/L at start): 3.54 OD
- Maximum Cell Density % Control (0.25 g/L at start): 111.96%
- Maximum Cell Density OD (0.25 g/L at start): 5.68 OD
- Maximum Cell Density Time (0.25 g/L at start): 72.00 h
- Time to completion (0.25 g/L at start): >96 h
- Volumetric Productivity % Control (based on Avg) (0.25 g/L at start): 107.35%
- Volumetric Productivity % Control (based on Max) (0.25 g/L at start): 135.46%
- Volumetric Productivity Average (0.25 g/L at start): 0.265 grams ethanol/(liter)(hour)
- Volumetric Productivity Maximum (0.25 g/L at start): 0.47 grams of ethanol/(liter)(hour)
- Ethanol Production Maximum (0.5 g/L at start): 26.53 g/L
- Ethanol Production Maximum % Control (0.5 g/L at start): 111.98%
- Ethanol yield (0.5 g/L at start): 0.273 grams of ethanol/grams of added sugar
- Initial Growth (OD @ 24 h) % Control (0.5 g/L at start): 69.39%
- Initial Growth (OD @ 24 h) OD (0.5 g/L at start): 2.61 OD
- Maximum Cell Density % Control (0.5 g/L at start): 116.26%
- Maximum Cell Density OD (0.5 g/L at start): 5.89 OD
- Maximum Cell Density Time (0.5 g/L at start): 96.00 h
- Time to completion (0.5 g/L at start): >96 h
- Volumetric Productivity % Control (based on Avg) (0.5 g/L at start): 111.98%
- Volumetric Productivity % Control (based on Max) (0.5 g/L at start): 147.11%
- Volumetric Productivity Average (0.5 g/L at start): 0.276 grams ethanol/(liter)(hour)
- Volumetric Productivity Maximum (0.5 g/L at start): 0.51 grams of ethanol/(liter)(hour)
- Ethanol Production Maximum [1]: 25.56 g/L
- Ethanol Production Maximum % Control [1]: 107.88%
- Ethanol yield [1]: 0.263 grams of ethanol/grams of added sugar
- Initial Growth (OD @ 24 h) % Control [1]: 88.59%
- Initial Growth (OD @ 24 h) OD [1]: 3.34 OD
- Maximum Cell Density % Control [1]: 104.50%
- Maximum Cell Density OD [1]: 5.30 OD
- Maximum Cell Density Time [1]: 96.00 h
- Time to completion [1]: >96 h
- Volumetric Productivity % Control (based on Avg) [1]: 107.88%
- Volumetric Productivity % Control (based on Max) [1]: 126.68%
- Volumetric Productivity Average [1]: 0.266 grams ethanol/(liter)(hour)
- Volumetric Productivity Maximum [1]: 0.44 grams of ethanol/(liter)(hour)
- Ethanol Production Maximum [2]: 26.14 g/L
- Ethanol Production Maximum % Control [2]: 110.32%
- Ethanol yield [2]: 0.269 grams of ethanol/grams of added sugar
- Initial Growth (OD @ 24 h) % Control [2]: 95.66%
- Initial Growth (OD @ 24 h) OD [2]: 3.60 OD
- Maximum Cell Density % Control [2]: 106.51%
- Maximum Cell Density OD [2]: 5.40 OD
- Maximum Cell Density Time [2]: 72.00 h
- Time to completion [2]: >96 h
- Volumetric Productivity % Control (based on Avg) [2]: 110.32%
- Volumetric Productivity % Control (based on Max) [2]: 135.55%
- Volumetric Productivity Average [2]: 0.272 grams ethanol/(liter)(hour)
- Volumetric Productivity Maximum [2]: 0.47 grams of ethanol/(liter)(hour)
- ethanol production as compared to the control [3]: highest amount of ethanol production
- initial growth and maximum cell density as compared to the control [3]: increased initial growth and maximum cell density
